# Reference: paper PMC4258814, “Differences between murine arylamine N-acetyltransferase type 1 and human arylamine N-acetyltransferase type 2 defined by substrate specificity and inhibitor binding” (BMC Pharmacology & Toxicology, 2014)
# Substitutions are numbered along the chain they refer to. Marks after values point to notes of the source that are not given here.
# Tests used:
# [1] = system: (MESAU)NAT2*1; design: method as in PMID 24758871; settings: read-out: IC50 with naphthoquinone 1, AcCoA 400 μM, substrate 4ABA, ref [26]; cited from earlier work
# [2] = biological target: T1, (MOUSE)NAT2*1 (Mus musculus, UniProt P50295); design: method as in PMID 23940600, PMID 20170182; settings: read-out: IC50 with naphthoquinone 1, AcCoA 400 μM, substrate 4ABA, ref [25], [24]; cited from earlier work
# T1 construct: made in house
# T1 sequence (P50295 1-290): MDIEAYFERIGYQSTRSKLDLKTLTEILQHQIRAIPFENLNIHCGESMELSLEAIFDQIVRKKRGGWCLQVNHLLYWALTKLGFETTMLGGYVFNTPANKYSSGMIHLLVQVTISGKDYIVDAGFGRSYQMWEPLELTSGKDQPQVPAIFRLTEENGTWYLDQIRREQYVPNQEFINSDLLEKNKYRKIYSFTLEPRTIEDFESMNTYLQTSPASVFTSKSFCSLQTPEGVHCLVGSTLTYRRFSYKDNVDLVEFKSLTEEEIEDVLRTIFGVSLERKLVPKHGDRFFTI
# [3] = biological target: T2, (HUMAN)NAT2*4 (Homo sapiens, UniProt P11245); design: method as in PMID 23940600; settings: in presence of (HUMAN)NAT2*4; ref [25]; cited from earlier work
# T2 construct: made in house
# T2 sequence (P11245 1-290): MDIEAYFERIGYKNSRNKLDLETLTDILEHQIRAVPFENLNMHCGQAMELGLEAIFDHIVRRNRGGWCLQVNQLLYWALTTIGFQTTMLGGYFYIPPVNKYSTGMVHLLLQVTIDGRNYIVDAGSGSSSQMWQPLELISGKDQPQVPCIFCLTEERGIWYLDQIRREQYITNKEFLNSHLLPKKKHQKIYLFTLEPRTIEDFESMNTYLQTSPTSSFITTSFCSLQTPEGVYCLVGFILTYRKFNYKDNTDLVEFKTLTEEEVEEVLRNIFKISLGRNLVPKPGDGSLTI
# [4] = biological target: T3, (MOUSE)NAT2_R127L (Mus musculus, UniProt P50295, R127L); design: method as in PMID 23940600; settings: in presence of (MOUSE)NAT2_R127L; ref [25]; cited from earlier work
# T3 construct: made in house
# T3 sequence (P50295 1-290 R127L): T1 sequence (P50295 1-290) with R127L
# [5] = biological target: T4, (MOUSE)NAT1*1 (Mus musculus, UniProt P50294); design: method as in PMID 20170182; settings: in presence of (MOUSE)NAT1*1; ref [24]; cited from earlier work
# T4 construct: The open reading frame of (MOUSE)Nat1*1 [32] was subcloned; hexa-His (N, cleaved yes); made in house; host or cells: Escherichia coli BL21(DE3)CodonPlus-RIL
# T4 sequence (P50294 1-290): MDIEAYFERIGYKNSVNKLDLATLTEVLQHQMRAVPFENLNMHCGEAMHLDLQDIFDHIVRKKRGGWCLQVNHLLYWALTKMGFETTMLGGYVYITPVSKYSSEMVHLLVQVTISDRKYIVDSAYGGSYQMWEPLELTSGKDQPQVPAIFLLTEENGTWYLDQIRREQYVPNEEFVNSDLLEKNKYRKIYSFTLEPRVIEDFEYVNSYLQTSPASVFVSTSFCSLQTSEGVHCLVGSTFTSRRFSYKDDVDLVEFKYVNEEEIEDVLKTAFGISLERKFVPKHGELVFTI
# [6] = biological target: T1, (MOUSE)NAT2*1; design: method as in PMID 23940600, PMID 20170182; settings: in presence of (MOUSE)NAT2*1; ref [25], [24]; cited from earlier work
# [7] = system: (HUMAN)NAT1*4; design: method as in PMID 23940600; settings: read-out: IC50 with naphthoquinone 1, AcCoA 400 μM, substrate 4ABA, ref [25]; cited from earlier work
# [8] = biological target: T5, (MOUSE)NAT2_R127G (Mus musculus, UniProt P50295, R127G); design: method as in PMID 23940600; settings: in presence of (MOUSE)NAT2_R127G; ref [25]; cited from earlier work
# T5 construct: made in house
# T5 sequence (P50295 1-290 R127G): T1 sequence (P50295 1-290) with R127G
# [9] = biological target: T2, (HUMAN)NAT2*4; assay: Inhibition of NAT activity (AcCoA hydrolysis rate); assay type: biochemical; settings: AcCoA 400 μM, substrate 2-aminofluorene, 5% DMSO
# From the text: (§1) The final concentration of dimethyl sulphoxide (DMSO) in reaction mixes was 5% (v/v). IC50 values were estimated using a dose–response-based regression model in Kyplot® software. Curves were fitted by least squares analysis with confidence limits of 95%.
# [10] = biological target: T6, (MOUSE)NAT2_F125S (Mus musculus, UniProt P50295, F125S); assay: Inhibition of NAT activity (AcCoA hydrolysis rate); assay type: biochemical; settings: AcCoA 400 μM, substrate 5AS, 5% DMSO
# T6 construct: His tag (only implied by Ni-NTA purification) (cleaved yes); made in house; host or cells: E. coli Rosetta(DE3)pLysS
# T6 sequence (P50295 1-290 F125S): T1 sequence (P50295 1-290) with F125S
# From the text: as §1
# [11] = biological target: T4, (MOUSE)NAT1*1; assay: Inhibition of NAT activity (AcCoA hydrolysis rate); assay type: biochemical; settings: AcCoA 400 μM, substrate 5AS, 5% DMSO
# From the text: as §1
# [12] = biological target: T2, (HUMAN)NAT2*4; design: method as in PMID 15627487, PMID 18280460; settings: substrate 500 μM, relative to substrate with highest specific activity (100%), mean of 3 ± SD, ref [8], [22]; cited from earlier work
# [13] = biological target: T6, (MOUSE)NAT2_F125S; assay: Substrate specific N-acetylation profile; assay type: biochemical; settings: (MOUSE)NAT2 F125S; substrate 500 μM; relative to substrate with highest specific activity (100%); mean of 3 ± SD
# [14] = biological target: T5, (MOUSE)NAT2_R127G; assay: Substrate specific N-acetylation profile; assay type: biochemical; settings: (MOUSE)NAT2 R127G; substrate 500 μM; relative to substrate with highest specific activity (100%); mean of 3 ± SD
# [15] = ref [56]–[61], cited from earlier work
# [16] = system: (MESAU)NAT2*1; design: method as in PMID 15627487, PMID 18280460; settings: substrate 500 μM, relative to substrate with highest specific activity (100%), mean of 3 ± SD, ref [8], [22]; cited from earlier work
# [17] = system: (HUMAN)NAT1*4; design: method as in PMID 15627487, PMID 18280460; settings: substrate 500 μM, relative to substrate with highest specific activity (100%), mean of 3 ± SD, ref [8], [22]; cited from earlier work
# [18] = biological target: T1, (MOUSE)NAT2*1; assay: Substrate specific N-acetylation profile; assay type: biochemical; settings: substrate 500 μM, relative to substrate with highest specific activity (100%), mean of 3 ± SD
# [19] = biological target: T3, (MOUSE)NAT2_R127L; assay: Substrate specific N-acetylation profile; assay type: biochemical; settings: (MOUSE)NAT2 R127L; substrate 500 μM; relative to substrate with highest specific activity (100%); mean of 3 ± SD
# [20] = biological target: T4, (MOUSE)NAT1*1; assay: Substrate specific N-acetylation profile; assay type: biochemical; settings: substrate 500 μM, relative to substrate with highest specific activity (100%), mean of 3 ± SD
smiles,measurement,setting,value
"Cc1cc(C)cc(NC2=C(NS(=O)(=O)c3ccccc3)C(=O)c3ccccc3C2=O)c1 [naphthoquinone 1, N-(3-(3,5-dimethylphenylamino)-1,4-dioxo-1,4-dihydronaphthalen-2-yl)benzenesulphonamide]",IC50,[1],89 µM
same,IC50,[2],1.3 µM
same,λ max of naphthoquinone 1,[3],498^a nm
same,λ max of naphthoquinone 1,[4],498^a nm
same,λ max of naphthoquinone 1,[5],498^b nm
same,λ max of naphthoquinone 1,[6],"625^a,b nm"
same,IC50,[7],5.3 µM
same,λ max of naphthoquinone 1,[8],498^a nm
same,IC50,[9],> 100 µM
same,IC50,[10],68.7 µM
same,IC50,[11],130 µM
"Nc1ccc(C(=O)O)c(O)c1 [4AS, 4-aminosalicylate]",% specific activity values,[12],7 ± 1%
same,% specific activity values,[13],75 ± 3%
same,% specific activity values,[14],27 ± 1%
same,pKaH of acetyl acceptor amine,[15]; as summarised in text from Table S1,< 3
same,pKa(H) (COOH),[15],6.0
same,pKa(H) (NH3^+),[15],2.3
same,pKa(H) (OH),[15],13.2
same,% specific activity values,[16],74 ± 3%
same,% specific activity values,[17],67 ± 2%
same,% specific activity values,[18],55 ± 1%
same,% specific activity values,[19],13 ± 1%
same,% specific activity values,[20],88 ± 6%
